The nature of this series: Single and repeat dose plasma and tissue pharmacokinetics in male C57BL/6 mice. Format: in vivo, mouse. An excerpt:
Materials and methods. The study involved two arms; a single dose pharmacokinetic study and a 4-day repeated-dose pharmacokinetic study. For each arm, 56 inbred male C57BL/6 mice, aged at 6-7 week, were included. All animals were purchased from Charles River Lab (CRL, MA). Upon their arrival, they were kept in special-pathogen-free environment all the time. Briefly, they were housed in group on corncob bedding (ScottPharma, MA) in Innovive® caging system (Innovive, Calif.) on a 12-hour light-dark cycle (0700-1900) at 68-74° F., and 30-70% humidity. They were allowed continually to access water and regular rodent Purina 5001 diet (ScottPharma, MA) ad libitum and to acclimate in the facility for 5 days. Animal handling and procedures were conducted under the protocols and/or guidelines approved by the Institutional Animal Care and Use Committee (IACUC) of […] Biosciences, Inc. […] Also, 2× drug vehicle (3% CMC+0.4% Tween-20) was prepared and stored at 4° C. for a week. On the day of injection, 1 ml frozen 2× aqueous stock solution (20 mg/ml drug solution) aliquot is thawed and mix with another 1 ml 2× drug vehicle (3% Carboxymethyl cellulose+0.4% Tween 20) to prepare 10 mg/ml drug solution. A 25 g mouse would receive 250 μl of 10 mg/ml solution for a dose of 100 mg/kg. Lower concentrations can be achieved by further diluting the 10 mg/ml in 1× vehicle solution with 1× vehicle prepared with milliQ water. On each dosing day, both compound stocks and 2× vehicle were warmed to room temperature and was mixed at 1:1 ratio, given to a concentration of 10 mg/mL. Then 1: 5-fold dilutions were obtained with 1× vehicle to 2 mg/mL. Dosing volume at 10 mL/kg (final dosage: 20 mg/kg) in the morning. […] Study Design. In each group 4 male 6-7-week-old C57BL/6 mice were used. Doses were administered once daily via oral gavage for either a day (single dose arm, QD×1) or 4 consecutive days (repeated dose arm, QD×4) (FIG. 26). Blood, half of brain hemisphere, and one lobe of liver samples were collected from all animals of Day 1 (QD×1 arm) at pre-dose and 0.25, 2, 4, 8, 24 and 36 hours post dose, or Day 4 (QD×4 arm) at pre-dose and 0.25, 2, 4, 8, 24 and 48 hours post dose. Blood samples were collected by cardiac puncture. The blood samples were maintained in wet ice first and centrifuged to obtain plasma (2000×g, 4° C., 5 min). All three samples from each mouse were analyzed for either Compound I-1 or Compound I-32 contents by Integrated Analytical Solutions (Berkeley, Calif.) and the results were used for the generation of the pharmacokinetic graphs. Sample collection, storage, bioanalysis and statistical analysis. All plasma and tissue samples were analyzed by discovery grade bioanalytical method developed for estimation of each test compound in plasma and tissue samples using LC-MS/MS systems. Plasma samples were prepared as follows. Three volumes of acetonitrile containing internal standard was added to one volume of plasma to precipitate proteins. Samples were centrifuged (3000×g for 10 min) and supernatant removed for analysis by LC-MS/MS. Calibration standards and quality controls were made by preparation of a 1 mg/mL stock solution in MeOH and subsequently a series of working solutions in MeOH:water (1/1, v/v) which were spiked into blank plasma to yield a series of calibration standard samples in the range of 1.0 ng/mL to 10 μg/mL. All incurred PK/PD plasma samples were treated identically to the calibration standards and quality control samples. LC-MS/MS analysis was performed utilizing multiple reaction monitoring for detection of characteristic ions for each drug candidate, additional related analytes and internal standard. Tissue samples were prepared as follows, three volumes of PBS buffer (pH 7.4) were added to one volume of each tissue sample which was then homogenized to obtain each tissue homogenate sample. […]

The mark [1] stands for this setting: male, C57BL/6, mouse brain, 20 mg/kg/day PO, repeat dose QD × 4.
The mark [2] stands for this setting: male, C57BL/6, mouse liver, 20 mg/kg PO, single dose QD × 1.
Where [3] appears, read: male, C57BL/6, mouse liver, 20 mg/kg/day PO, repeat dose QD × 4.
Where [4] appears, read: male, C57BL/6, mouse plasma, 20 mg/kg PO, single dose QD × 1.
[5] abbreviates: male, C57BL/6, mouse plasma, 20 mg/kg/day PO, repeat dose QD × 4.
Setting [6] is: mouse brain, 20 mg/kg PO, single dose QD × 1.
[7] abbreviates: mouse brain, 20 mg/kg/day PO, repeat dose QD × 4.
Setting [8] is: mouse liver, 20 mg/kg PO, single dose QD × 1.
The mark [9] stands for this setting: mouse liver, 20 mg/kg/day PO, repeat dose QD × 4.

Regarding `CC(C)(CCCCc1cccc(CCCCC(C)(C)C(=O)O)c1)C(=O)O` [Compound I-32, 6-[3-(5-carboxy-5-methylhexyl)-phenyl]-2,2-dimethylhexanoic acid], the half-life – broadly, the time needed for the level to fall by half in the phase considered – runs as follows: (male, C57BL/6, mouse brain, 20 mg/kg PO, single dose QD × 1) 3 h; under setting [1], 8 h; under setting [2], 13 h; under setting [3], 16 h; under setting [4], 9 h; under setting [5], 9.2 h. The AUC0-t is 1,527 h*ng/g under setting [6], 6,304 h*ng/g under setting [7], 405,934 h*ng/g under setting [8] and 1.01e+06 ng·h/g under setting [9].
As for `CC(C)(CCCCc1ccc(CCCCC(C)(C)C(=O)O)cc1)C(=O)O` [Compound I-1, 6-[4-(5-carboxy-5-methylhexyl)-phenyl]-2,2-dimethylhexanoic acid], the concentration under setting [1] peaked (Cmax) at 169 ng/g. The half-life was 9.6 h under setting [2], 20.4 h under setting [3], 15.3 h under setting [4] and 22 h under setting [5]. Also, the AUC0-t result is “(2,091)* h*ng/g” (mouse brain, 20 mg/kg PO, QD × 1, value in brackets with * (reanalysis)); 1,183 h*ng/g under setting [6]; “(3,995)* h*ng/g” (mouse brain, 20 mg/kg/day PO, QD × 4, value in brackets with * (reanalysis)); 1,220 h*ng/g under setting [7]; “(469,726)* h*ng/g” (mouse liver, 20 mg/kg PO, QD × 1, timepoint 0.25 h samples after reanalysis); 425,184 h*ng/g under setting [8]. Moreover, the AUC0-t entry runs as follows: (mouse liver, 20 mg/kg/day PO, QD × 4, timepoint 0.25 h samples after reanalysis) “(718,455)* h*ng/g”; under setting [9], 687,414 h*ng/g.

Source of the values: patent publication US11730712B2, “Functionalized long-chain hydrocarbon mono- and di-carboxylic acids and derivatives thereof, and their use for the prevention or treatment of disease” (ESPERVITA THERAPEUTICS, INC., priority 2021, dated 2023).
